Measured values as given in patent US20090105292A9, “Glucocorticoid Receptor Modulator Compounds and Methods” (LIGAND PHARMACEUTICALS INCORPORATED, priority 2004, published 2009).

Target: T1, human glucocorticoid receptor protein (GR) (Homo sapiens, UniProt P04150)
T1 construct: made in house; host or cells: Spodoptera frugiperda Sf21 insect cells (baculovirus)
T1 sequence (P04150 1-777): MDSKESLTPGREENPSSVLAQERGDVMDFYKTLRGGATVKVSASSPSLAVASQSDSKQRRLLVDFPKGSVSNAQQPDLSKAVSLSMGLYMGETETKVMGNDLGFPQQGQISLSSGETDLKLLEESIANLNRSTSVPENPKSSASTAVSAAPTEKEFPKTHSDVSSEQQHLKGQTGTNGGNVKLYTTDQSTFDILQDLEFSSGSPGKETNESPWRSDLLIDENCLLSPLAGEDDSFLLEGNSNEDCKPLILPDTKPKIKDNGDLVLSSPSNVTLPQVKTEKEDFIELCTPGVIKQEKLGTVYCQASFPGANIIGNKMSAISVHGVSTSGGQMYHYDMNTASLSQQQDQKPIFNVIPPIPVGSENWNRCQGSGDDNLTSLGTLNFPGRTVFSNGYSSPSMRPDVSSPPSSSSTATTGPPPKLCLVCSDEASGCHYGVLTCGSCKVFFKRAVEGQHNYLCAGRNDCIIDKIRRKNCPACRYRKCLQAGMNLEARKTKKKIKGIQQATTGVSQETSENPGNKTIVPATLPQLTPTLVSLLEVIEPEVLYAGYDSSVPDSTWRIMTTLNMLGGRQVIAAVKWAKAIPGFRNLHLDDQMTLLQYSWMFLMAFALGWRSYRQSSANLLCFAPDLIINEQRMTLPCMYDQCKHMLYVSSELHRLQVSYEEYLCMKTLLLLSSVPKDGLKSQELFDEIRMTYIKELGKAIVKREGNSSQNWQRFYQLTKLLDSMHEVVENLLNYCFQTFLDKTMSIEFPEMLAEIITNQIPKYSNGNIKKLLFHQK
Experiment: Glucocorticoid receptor binding assay ([3H]dexamethasone competition, GR lysate)
Conditions: not given
Description: A baculovirus expression plasmid containing cDNA encoding the human glucocorticoid receptor protein (GR) was prepared using standard techniques. […] That expression plasmid was co-transfected together with wild type Autographa californica multiple nuclear polyhedrosis virus DNA into Spodopter frugiperda-21 (Sf-21) cells to generate recombinant virus containing GR cDNA. See e.g., O'Reilly, D. R., Miller, L. K., Luckow, V. A., Regulation of expression of a baculovirus ecdysteroid UDP glucosyltransferase gene. […] That recombinant virus containing GR cDNA was collected.
A suspension culture of uninfected Sf21 cells was grown to a density of 1.2×10^6 cells/ml and then infected with the recombinant virus containing GR cDNA at a multiplicity of infection of 2. Those infected Sf21 cells were incubated for 48 hours and then collected by centrifugation at 1000×g for 10 minutes at 4° C. The resulting cell pellets were resuspended in lysis buffer (50 mM Potassium Phosphate buffer, pH 7.0, 10 mM Monothioglycerol, 5 mM DTT, 20 mM Sodium Molybdate, 1 mM PMSF, 1 μg/mL aprotinin, and 10 μg/mL leupeptin) and incubated for 15 minutes on ice. Those resuspended cell pellets were homogenized using a Dounce homogenizer and a B pestle. A volume of 2 M KCl was added to the homogenized cell pellets to a final concentration of 0.4 M. The resulting GR lysates were centrifuged at 100,000×g for 60 min at 4° C. and stored for use in binding assays.
Binding assay samples were prepared in separate mini-tubes in a 96-well format at 4° C. Each binding assay sample was prepared in a volume of 250 μL of Assay Buffer (10% glycerol, 25 mM sodium phosphate, 10 mM potassium fluoride, 10 mM sodium molybdate, 0.25 mM CHAPS, 2 mM DTT and 1 mM EDTA, (adjusted to pH 7.5)) containing 50 μg of GR lysate; 2-4 nM of [^3H]dexamethasone at 84 Ci/mmol; and either a reference compound or a test compound. […] Each reference compound and test compound was assayed at varying concentrations, ranging from 0 to 10^−5 M. Each concentration of each reference compound and each test compound was assayed in triplicate. The assay samples were incubated for 16 hours at 4° C.
The assay samples were then centrifuged and the supernatants were discarded. The resulting pellets were washed twice with assay buffer lacking DTT. Radioactivity in counts per minute (CPM) of each washed pellet was determined by liquid scintillation counter (MicroBeta™, Wallach).
Specific binding for a particular sample was calculated using the equation: (Sample CPM)−(Average Non-specific CPM)
Average Non-specific CPM was defined as the amount of radioactivity from samples containing an excess (i.e. 1000 nM) of unlabeled dexamethasone. […] Ki values were determined using the Cheng-Prusoff equation using a previously determined Kd value for dexamethasone: Ki=IC50/(1+[L]/Kd)
[L]=concentration of labeled dexamethasone
Kd=dissociation constant of labeled dexamethasone

Compared with COc1c(O)ccc2c1-c1ccc3c(c1/C(=C/c1oc(C)cc1C(=O)N(C)C)O2)C(C)=CC(C)(C)N3 [Compound 146, (Z)-5-(2′-(3′-dimethylaminocarbonyl-5H-methylfuranylmethylidene))-1,2-dihydro-9-hydroxy-10-methoxy-2,2,4-trimethyl-5H-chromeno[3,4-f]quinoline], COc1c(O)ccc2c1-c1ccc3c(c1/C(=C/c1sccc1C(=O)N1CCC(=O)CC1)O2)C(C)=CC(C)(C)N3 [Compound 252, (Z)-5-(2′-(3′-(4″-Oxo-piperidinecarbonyl)thienylmethylidene))1,2-dihydro-9-hydroxy-10-methoxy-2,2,4-trimethyl-5H-chromeno[3,4-f]quinoline] is lower in Ki: over 3 nM for the first, 1 to 2 nM for the second.

Same assay, conditions: competition with 2-4 nM [3H]dexamethasone, 16 hours at 4° C., Cheng-Prusoff; read-out: Ki

COCCN(CCOC)C(=O)c1ccsc1/C=C1\Oc2ccc(O)c(OC)c2-c2ccc3c(c21)C(C)=CC(C)(C)N3 [Compound 138, (Z)-5-(2′-(3′-(di(methoxyethyl)aminocarbonyl)thienylmethylidene))-1,2-dihydro-9-hydroxy-10-methoxy-2,2,4-trimethyl-5H-chromeno[3,4-f]quinoline] and CCNC(=O)c1ccsc1/C=C1\Oc2ccc(O)c(OC)c2-c2ccc3c(c21)C(C)=CC(C)(C)N3 [Compound 249, (Z)-5-(2′-(3′-Ethylcarbamoylthienylmethylidene))1,2-dihydro-9-hydroxy-10-methoxy-2,2,4-trimethyl-5H-chromeno[3,4-f]quinoline] fall in the same range of Ki: 1 to 2 nM for the first, 1 to 2 nM for the second.

First: COc1c(O)ccc2c1-c1ccc3c(c1/C(=C/c1ccc(C(=O)N4CCCC4)s1)O2)C(C)=CC(C)(C)N3 [Compound 143, (Z)-5-(2′-(5′-(pyrrolidinocarbonyl)thienylmethylidene))-1,2-dihydro-9-hydroxy-10-methoxy-2,2,4-trimethyl-5H-chromeno[3,4-f]quinoline]
Second: COc1c(O)ccc2c1-c1ccc3c(c1/C(=C/c1cccc(C)c1C(=O)N1CCCC1)O2)C(C)=CC(C)(C)N3 [Compound 154, (Z)-5-(3′-Methyl-2′-(pyrrolidinecarbonyl)benzylidene)1,2-dihydro-9-hydroxy-10-methoxy-2,2,4-trimethyl-5H-chromeno[3,4-f]quinoline]
The Ki of the first is lower: 1 to 2 nM for the first, over 3 nM for the second.

Compared with COc1c(O)ccc2c1-c1ccc3c(c1/C(=C/c1oc(C)cc1C(=O)N1CCCCC1)O2)C(C)=CC(C)(C)N3 [Compound 151, (Z)-5-(2′-(5′-Methyl-3′-(piperidinecarbonyl)furanylmethylidene))1,2-dihydro-9-hydroxy-10-methoxy-2,2,4-trimethyl-5H-chromeno[3,4-f]quinoline], COc1c(O)ccc2c1-c1ccc3c(c1/C(=C/c1sccc1CO)O2)C(C)=CC(C)(C)N3 [Compound 157, (Z)-5-(2′-(3′-Hydroxymethylthienylmethylidene))1,2-dihydro-9-hydroxy-10-methoxy-2,2,4-trimethyl-5H-chromeno[3,4-f]quinoline] is lower in Ki: 1 to 2 nM for the first, under 1 nM for the second. The second binds more tightly here.

COc1c(O)ccc2c1-c1ccc3c(c1/C(=C/c1ccccc1CO)O2)C(C)=CC(C)(C)N3 [Compound 159, (Z)-5-(2′-Hydroxymethylbenzylidene)1,2-dihydro-9-hydroxy-10-methoxy-2,2,4-trimethyl-5H-chromeno[3,4-f]quinoline] and COCc1ccsc1/C=C1\Oc2ccc(O)c(OC)c2-c2ccc3c(c21)C(C)=CC(C)(C)N3 [Compound 193, (Z)-5-(2′-(3′-Methoxymethylthienylmethylidene))1,2-dihydro-9-hydroxy-10-methoxy-2,2,4-trimethyl-5H-chromeno[3,4-f]quinoline] fall in the same range of Ki: 1 to 2 nM for the first, 1 to 2 nM for the second.

COc1c(O)ccc2c1-c1ccc3c(c1/C(=C/c1sccc1CN(C)C)O2)C(C)=CC(C)(C)N3 [Compound 166, (Z)-5-(2′-(3′-(Dimethylaminomethyl)thienylmethylidene))1,2-dihydro-9-hydroxy-10-methoxy-2,2,4-trimethyl-5H-chromeno[3,4-f]quinoline] and COc1c(O)ccc2c1-c1ccc3c(c1/C(=C/c1sccc1CNC1CC1)O2)C(C)=CC(C)(C)N3 [Compound 222, (Z)-5-(2′-(3′-(Cyclopropylaminomethyl)thienylmethylidene))1,2-dihydro-9-hydroxy-10-methoxy-2,2,4-trimethyl-5H-chromeno[3,4-f]quinoline] fall in the same range of Ki: 2 to 3 nM for the first, 2 to 3 nM for the second.

C=CCO/N=C(\C)c1ccsc1/C=C1\Oc2ccc(O)c(OC)c2-c2ccc3c(c21)C(C)=CC(C)(C)N3 [Compound 178, (Z)-5-(2′-(3′-((E)-1″-Allyloxyiminoethyl)thienylmethylidene))1,2-dihydro-9-hydroxy-10-methoxy-2,2,4-trimethyl-5H-chromeno[3,4-f]quinoline] and C=CCO/N=C(/C)c1ccsc1/C=C1\Oc2ccc(O)c(OC)c2-c2ccc3c(c21)C(C)=CC(C)(C)N3 [Compound 179, (Z)-5-(2′-(3′-((Z)-1″-Allyloxyiminoethyl)thienylmethylidene))1,2-dihydro-9-hydroxy-10-methoxy-2,2,4-trimethyl-5H-chromeno[3,4-f]quinoline] fall in the same range of Ki: 1 to 2 nM for the first, 1 to 2 nM for the second.

COc1c(O)ccc2c1-c1ccc3c(c1/C(=C/c1sccc1C(=O)c1ccsc1)O2)C(C)=CC(C)(C)N3 [Compound 215, (Z)-5-(2′-(3′-(Thien-3″-ylcarbonyl)thienylmethylidene))1,2-dihydro-9-hydroxy-10-methoxy-2,2,4-trimethyl-5H-chromeno[3,4-f]quinoline] and CC#CCOCc1ccsc1/C=C1\Oc2ccc(O)c(OC)c2-c2ccc3c(c21)C(C)=CC(C)(C)N3 [Compound 237, (Z)-5-(2′-(3′-(But-2″-ynloxymethyl)thienylmethylidene))1,2-dihydro-9-hydroxy-10-methoxy-2,2,4-trimethyl-5H-chromeno[3,4-f]quinoline] fall in the same range of Ki: 1 to 2 nM for the first, 1 to 2 nM for the second.

System: not given
Experiment: not given
Conditions: not given

COc1c(O)ccc2c1-c1ccc3c(c1/C(=C/c1sccc1C(C)=O)O2)C(C)=CC(C)(C)N3 showed a melting point of 222 to 224 °C.
